Patent US20260125400A1, “TYK2 DEGRADERS AND USES THEREOF” (Kymera Therapeutics, Inc., priority 2023, published 2026)
Where two headings read alike, the source gives them in different places.

Target: T1, TYK2 (Homo sapiens, UniProt P29597)
T1 construct: Degradation of TYK2 in cells was quantitatively measured using Meso Scale Discovery (MSD) technology; endogenous in cells; host or cells: OCI-LY10
Test: TYK2 MSD degradation in OCI-LY10 cells
Assay type: cell-based
Conditions: 4 to 24 hours incubation; for DC50: read-out: TYK2 MSD OCI-LY10 Rel-DC50
In short: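 Cellular TYK2 levels were measured by Meso Scale Discovery sandwich detection in RIPA lysates of OCI-LY10 cells exposed 4 to 24 hours at 37° C to nine 1:3 compound doses starting at 1 to 10 μM final; dose-response fitted by four-parameter regression.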

[1] = TYK2 degradation in OCI-LY10 cells

T1 sequence (P29597 whole entry): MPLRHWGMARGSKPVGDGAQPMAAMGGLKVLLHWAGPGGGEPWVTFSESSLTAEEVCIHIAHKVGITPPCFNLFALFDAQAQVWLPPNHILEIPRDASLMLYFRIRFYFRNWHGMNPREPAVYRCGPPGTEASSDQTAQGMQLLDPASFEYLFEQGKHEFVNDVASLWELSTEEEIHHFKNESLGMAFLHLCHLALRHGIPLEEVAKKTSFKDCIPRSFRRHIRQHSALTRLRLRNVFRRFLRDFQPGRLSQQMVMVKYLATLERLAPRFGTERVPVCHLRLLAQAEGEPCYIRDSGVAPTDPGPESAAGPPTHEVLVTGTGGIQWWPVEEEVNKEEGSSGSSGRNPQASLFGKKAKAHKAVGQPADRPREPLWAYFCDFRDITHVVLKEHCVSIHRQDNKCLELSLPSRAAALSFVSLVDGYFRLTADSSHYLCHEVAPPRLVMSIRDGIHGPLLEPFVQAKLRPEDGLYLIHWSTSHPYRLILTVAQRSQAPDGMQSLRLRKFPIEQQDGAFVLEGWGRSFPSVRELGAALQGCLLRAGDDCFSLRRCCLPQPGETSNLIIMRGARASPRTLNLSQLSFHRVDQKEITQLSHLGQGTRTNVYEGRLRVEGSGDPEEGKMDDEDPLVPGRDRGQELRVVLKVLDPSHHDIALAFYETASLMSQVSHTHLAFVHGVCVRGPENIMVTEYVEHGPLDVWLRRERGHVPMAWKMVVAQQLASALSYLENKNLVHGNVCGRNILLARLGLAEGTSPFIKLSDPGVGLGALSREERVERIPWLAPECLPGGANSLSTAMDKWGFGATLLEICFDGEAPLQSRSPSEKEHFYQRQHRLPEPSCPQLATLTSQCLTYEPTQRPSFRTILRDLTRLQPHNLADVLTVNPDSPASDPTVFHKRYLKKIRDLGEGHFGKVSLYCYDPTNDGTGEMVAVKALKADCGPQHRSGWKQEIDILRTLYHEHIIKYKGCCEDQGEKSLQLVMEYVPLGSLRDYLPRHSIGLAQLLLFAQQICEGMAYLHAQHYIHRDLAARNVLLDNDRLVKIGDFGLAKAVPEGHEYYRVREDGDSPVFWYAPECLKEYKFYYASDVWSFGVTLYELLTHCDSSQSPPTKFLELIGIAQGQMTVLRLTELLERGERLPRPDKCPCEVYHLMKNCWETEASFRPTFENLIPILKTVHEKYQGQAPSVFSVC

Row | Compound | TYK2 MSD OCI-LY10 Dmax % [1] | DC50 [1] | TYK2 MSD OCI-LY10 Dmax % (OCI-LY10 cells) | DC50 (OCI-LY10 cells) | Dmax [1]
1 | CNc1cc(N2CCc3c(-c4ncc(C(=O)N5CC6(CCN(C(=O)c7cc(C)c(Cl)c(N8CCC(=O)NC8=O)c7)CC6(F)F)C5)cc4F)cccc32)nn2c(C(=O)N[C@@H]3CC[C@H]3OC)cnc12 [I-1139] | A (A (>90%)) | < 1 nM | – | – | –
2 | CNc1cc(N2CCc3c(-c4ccc(CN5CC6(CCN(C(=O)c7ccc(Cl)c(N8CCC(=O)NC8=O)c7)CC6(F)F)C5)cn4)cccc32)nn2c(C(=O)N[C@H]3C[C@H](C)C3)cnc12 [I-888] | B (B (90 to >75%)) | < 10 nM | – | – | –
3 | CNc1cc(N2CCc3c(-c4ncc(CN5CCC6(CCN(C(=O)c7cc(C)c(Cl)c(N8CCC(=O)NC8=O)c7)CC6)C(F)(F)C5)cn4)cccc32)nn2c(C(=O)N[C@@H]3C[C@@H]3F)cnc12 [I-799] | B (B (90 to >75%)) | < 10 nM | – | – | –
4 | CNc1cc(N2CCc3c(-c4cnc(CN5CC6(CCN(C(=O)c7ccc(Cl)c(N8CCC(=O)NC8=O)c7)CC6)C5)nc4)cccc32)nn2c(C(=O)N[C@@H]3C[C@@H]3F)cnc12 [I-465] | – | – | B (B (90 to >75%)) | < 10 nM | –
5 | CNc1cc(N2CCc3c([C@H](C)N4CC[C@H](N5CCC6(CCN(C(=O)c7cc(C)c(Cl)c(N8CCC(=O)NC8=O)c7)CC6)CC5)C(F)(F)C4)cccc32)nn2c(C(=O)N[C@@H]3CC[C@H]3OC)cnc12 [I-1127] | A (A (>90%)) | < 1 nM | – | – | –
6 | CNc1cc(N2CCc3c(-c4ccc(OCCC5CCN(C(=O)c6ccc(Cl)c(N7CCC(=O)NC7=O)c6)CC5)cn4)cccc32)nn2c(C(=O)N[C@@H]3C[C@@H]3F)cnc12 [I-617] | – | – | C (C (75 to 50%)) | < 10 nM | –
7 | CNc1cc(N2CCc3c(CN4CCC(CCN5CCN(C(=O)c6ccc(Cl)c(N7CCC(=O)NC7=O)c6)CC5)CC4)cccc32)nn2c(C(=O)N[C@@H]3C[C@@H]3F)cnc12 [I-717] | – | – | C (C (75 to 50%)) | < 10 nM | –
8 | CNc1cc(N2CCc3c(-c4ccc(CN5CCC(N6CC(N7CCN(c8cccc9c8n(C)c(=O)n9C8CCC(=O)NC8=O)CC7)C6)C(F)(F)C5)cn4)cccc32)nn2c(C(=O)N[C@@H]3C[C@@H]3F)cnc12 (stereo partly shown) [I-277] | B (B (90 to >75%)) | < 1 nM | – | – | –
9 | CNc1cc(N2CCc3c(-c4ccc(CN5CC6(CCN(C(=O)c7cnc(C)c(N8CCC(=O)NC8=O)c7)CC6)C5)cn4)cccc32)nn2c(C(=O)N[C@@H]3C[C@@H]3F)cnc12 [I-351] | B (B (90 to >75%)) | < 1 nM | – | – | –
10 | CNc1cc(N2CCc3c(-c4cnc(CN5CC6(CCN(C(=O)c7ccc(Cl)c(N8CCC(=O)NC8=O)c7)CC6)C5)cn4)cccc32)nn2c(C(=O)N[C@@H]3C[C@@H]3F)cnc12 [I-466] | – | – | A (A (>90%)) | < 1 nM | –
11 | CNc1cc(N2CCc3c(CN4CCC(N5CCC(C6CCN(c7ccc8c(c7)n(C)c(=O)n8C7CCC(=O)NC7=O)CC6)CC5)C(F)(F)C4)cccc32)nn2c(C(=O)N[C@H]3C[C@H]3F)cnc12 (stereo partly shown) [I-84] | C (C (75 to 50%)) | < 10 nM | – | – | –
12 | CNc1cc(N2CCc3c(CN4CCC(N5CCC6(CCN(C(=O)c7ccc(Cl)c(N8CCC(=O)NC8=O)c7)CC6)C5)C(F)(F)C4)cccc32)nn2c(C(=O)N[C@@H]3C[C@@H]3F)cnc12 (stereo partly shown) [I-805] | A (A (>90%)) | < 1 nM | – | – | –
13 | CNc1cc(N2CC3(CCN(CCc4cccc5c4n(C)c(=O)n5C4CCC(=O)NC4=O)CC3)c3ccccc32)nn2c(C(=O)NC3CC3)cnc12 (stereo not shown) [I-41] | D (D (<50%)) | > 100 nM | – | – | –
14 | CNc1cc(N2CCc3c(CN4CCC(N5CCC6(CCN(C(=O)c7cc(F)c(C)c(N8CCC(=O)NC8=O)c7)CC6)CC5)C(F)(F)C4)cccc32)nn2c(C(=O)N[C@@H]3CC[C@H]3OC)cnc12 (stereo partly shown) [I-1081] | A (A (>90%)) | < 1 nM | – | – | –
15 | CNc1cc(N2CCc3c(-c4ccc(CN5CCN(CCC6CCN(c7ccc(Cl)c(C8CCC(=O)NC8=O)c7)CC6)CC5)cn4)cccc32)nn2c(C(=O)NC3CC3F)cnc12 (mixture of isomers) [I-438] | – | – | C (C (75 to 50%)) | < 10 nM | –
16 | CNc1cc(N2CCc3c(CN4CCC(CN5CCC6(CC5)CCN(C(=O)c5ccc(Cl)c(N7CCC(=O)NC7=O)c5)CC6)C(F)(F)C4)cccc32)nn2c(C(=O)N[C@@H]3CC[C@H]3OC)cnc12 (stereo partly drawn) [I-1074, 6-(4-{[4-({9-[14-chloro-3-(2,4-dioxo-1,3-diazinan-1-yl)benzoyl]-3,9-diazaspiro[5.5]undecan-3-yl}methyl)-3,3-difluoropiperidin-1-yl]methyl}-2,3-dihydroindol-1-yl)-N-[(1R,2R)-2-methoxycyclobutyl]-8-(methylamino)imidazo[1,2-b]pyridazine-3-carboxamide] | – | < 1 nM | – | – | > 90%
17 | CNc1cc(N2CCc3c(-c4ccc(CN5CCC6(CC5)CCN(c5ccc(C7CCC(=O)NC7=O)c(Cl)c5)CC6)cn4)cccc32)nn2c(C(=O)N[C@@H]3C[C@@H]3F)cnc12 (stereo partly shown) [I-77] | D (D (<50%)) | < 10 nM | – | – | –
18 | CNc1cc(N2CCc3c(CN4CCC(N5CCC6(CCN(C(=O)c7ccc(Cl)c(N8CCC(=O)NC8=O)c7)CC6)CC5)C(F)(F)C4)cc(F)cc32)nn2c(C(=O)N[C@@H]3C[C@@H]3F)cnc12 (stereo partly shown) [I-808] | A (A (>90%)) | < 1 nM | – | – | –
19 | CNc1cc(N2CCc3c(CN4CCC(N5CCC6(CCN(C(=O)c7ccc(Cl)c(N8CCC(=O)NC8=O)c7)C6)C5)C(F)(F)C4)cccc32)nn2c(C(=O)N[C@@H]3C[C@@H]3F)cnc12 (stereo partly shown) [I-811] | A (A (>90%)) | < 1 nM | – | – | –
20 | CNc1cc(N2CCc3c(-c4ccc(CN5CCC(N6CC7(CCN(c8cccc9c8n(C)c(=O)n9C8CCC(=O)NC8=O)CC7)C6)C(F)(F)C5)cn4)cccc32)nn2c(C(=O)N[C@@H]3C[C@@H]3F)cnc12 (stereo partly shown) [I-279] | B (B (90 to >75%)) | < 10 nM | – | – | –
21 | CNc1cc(N2CCc3c(C#CCN4CCC(N5CCC(C6CCN(c7ccc8c(c7)n(C)c(=O)n8C7CCC(=O)NC7=O)CC6)CC5)C(F)(F)C4)cccc32)nn2c(C(=O)N[C@@H]3C[C@@H]3F)cnc12 (stereo partly shown) [I-467] | – | – | B (B (90 to >75%)) | < 10 nM | –
22 | CNc1cc(N2CCc3c(CN4CCC(N5CCC6(CCN(C(=O)c7cc(N8CCC(=O)NC8=O)c(Cl)cc7C)CC6)CC5)C(F)(F)C4)cccc32)nn2c(C(=O)N[C@@H]3C[C@@H]3F)cnc12 (stereo partly shown) [I-765] | – | – | B (B (90 to >75%)) | < 10 nM | –
23 | CNc1cc(N2CCc3c(-c4ncc(CN5CC6(CCN(C(=O)c7cc(C)c(C)c(N8CCC(=O)NC8=O)c7)CC6(F)F)C5)cc4F)cccc32)nn2c(C(=O)N[C@@H]3C[C@@H]3F)cnc12 [I-989] | A (A (>90%)) | < 1 nM | – | – | –
24 | CNc1cc(N2CCc3c(CN4CCC(N5CCC(C6CCN(C(=O)c7ccc(Cl)c(N8CCC(=O)NC8=O)c7)CC6)CC5)C(F)(F)C4)cccc32)nn2c(C(=O)N[C@@H]3C[C@@H]3F)cnc12 (stereo partly shown) [I-780] | – | – | A (A (>90%)) | < 1 nM | –
25 | CNc1cc(N2CCc3c(-c4ccc(OCC5CCN(Cc6ccc(Cl)c(C7CCC(=O)NC7=O)c6)CC5)cn4)cccc32)nn2c(C(=O)N[C@@H]3C[C@@H]3F)cnc12 (stereo partly shown) [I-425] | – | – | D (D (<50%)) | > 100 nM | –
26 | CNc1cc(N2CCc3c(N4CCN(CC5CCC6(CC5)CCN(c5ccc7c(c5)n(C)c(=O)n7C5CCC(=O)NC5=O)CC6)CC4)cccc32)nn2c(C(=O)NC3CC3)cnc12 (stereo not shown) [I-39] | D (D (<50%)) | < 10 nM | – | – | –
